From the supplement of paper PMC11061612

Legend:
Assay in all cases: combination Emax (second highest fraction inhibited in the dose matrix, 72 h); higher = more inhibition; extreme values may be limits of the assay
[1] = system: PL4 (Pancreatic Carcinoma)
How it was run: (§1)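 Cell lines in DMEM/F12 or RPMI with 10% FBS were plated in 1536-well plates, held 24 hours at 37°C, 5% CO2, then given two-drug dose matrices for 72 hours (DMSO typically 0.2%). Viability was read by CellTiter-Glo 2.0 luminescence and scaled as inhibition from 0 (vehicle wells) to 1 (blank wells). Combination Emax is the second-highest inhibition in the matrix; Bliss excess is observed combination effect minus expected EA + EB − EA·EB, EA and EB being single-agent effects.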

[2] = system: SK-CO-1 (Colorectal Carcinoma)
How it was run: as §1

[3] = system: NB1 (Neuroblastoma)
How it was run: as §1

[4] = system: Raji (Burkitt's Lymphoma)
How it was run: as §1

[5] = system: RCC-JW (Kidney Carcinoma)
How it was run: as §1

[6] = system: SNU-423 (Hepatocellular Carcinoma)
How it was run: as §1

[7] = system: NCI-H3118 (Head and Neck Carcinoma)
How it was run: as §1

[8] = system: MM1S (Plasma Cell Myeloma)
How it was run: as §1

[9] = system: LCLC-103H (Non-Small Cell Lung Carcinoma)
How it was run: as §1

[10] = system: SCC-4 (Oral Cavity Carcinoma)
How it was run: as §1

[11] = system: KP-4 (Pancreatic Carcinoma)
How it was run: as §1

[12] = system: T47D (Breast Carcinoma)
How it was run: as §1

[13] = system: GAK (Melanoma)
How it was run: as §1

[14] = system: NCI-H2373 (Mesothelioma)
How it was run: as §1

[15] = system: NCI-H596 (Other Solid Carcinomas)
How it was run: as §1

[16] = system: SiHa (Cervical Carcinoma)
How it was run: as §1

[17] = system: T84 (Colorectal Carcinoma)
How it was run: as §1

[18] = system: MS-1 (Small Cell Lung Carcinoma)
How it was run: as §1

[19] = system: NAMALWA (Burkitt's Lymphoma)
How it was run: as §1

[20] = system: AM-38 (Glioblastoma)
How it was run: as §1

SMILES | combination Emax [1] | combination Emax [2] | combination Emax [3] | combination Emax [4] | combination Emax [5] | combination Emax [6] | combination Emax [7] | combination Emax [8] | combination Emax [9] | combination Emax [10] | combination Emax [11] | combination Emax [12] | combination Emax [13] | combination Emax [14] | combination Emax [15] | combination Emax [16] | combination Emax [17] | combination Emax [18] | combination Emax [19] | combination Emax [20]
CCN(CCO)CCCOc1ccc2c(Nc3cc(CC(=O)Nc4cccc(F)c4)[nH]n3)ncnc2c1 [AZD2811] + C=CCn1c(=O)c2cnc(Nc3ccc(N4CCN(C)CC4)cc3)nc2n1-c1cccc(C(C)(C)O)n1 [AZD1775] (first compound max 1 µM, partner max 1 µM) | 0.554 | 0.674 | 0.869 | 0.667 | 0.161 | 0.59 | 0.807 | 0.776 | 0.546 | 0.454 | 0.651 | 0.314 | 0.682 | 0.408 | 0.346 | 0.164 | 0.645 | 0.848 | 0.977 | 0.377
CCN(CCO)CCCOc1ccc2c(Nc3cc(CC(=O)Nc4cccc(F)c4)[nH]n3)ncnc2c1 [AZD2811] + C[C@@H]1COCCN1C2=NC(=NC(=C2)C3(CC3)[S@](=N)(=O)C)C4=C5C=CNC5=NC=C4 [AZD6738] (first compound max 1 µM, 7x7, partner max 10 µM) | 0.657 | 0.7 | 0.79 | 0.691 | 0.545 | 0.473 | 0.599 | 0.646 | 0.5 | 0.633 | 0.611 | 0.313 | 0.564 | 0.534 | 0.377 | 0.225 | 0.675 | 0.72 | 0.924 | 0.747
CCN(CCO)CCCOc1ccc2c(Nc3cc(CC(=O)Nc4cccc(F)c4)[nH]n3)ncnc2c1 [AZD2811] + O=C(c1cc(Cc2n[nH]c(=O)c3ccccc23)ccc1F)N1CCN(C(=O)C2CC2)CC1 [Olaparib] (first compound max 1 µM, 7x7, partner max 10 µM) | 0.269 | 0.615 | 0.653 | 0.341 | 0.183 | 0.264 | 0.208 | 0.291 | 0.752 | 0.406 | 0.513 | 0.233 | 0.295 | 0.206 | 0.238 | 0.173 | 0.112 | 0.454 | 0.617 | 0.331
CN(CCO)CC[C@H](CSc1ccccc1)Nc1ccc(S(=O)(=O)NC(=O)c2ccc(N3CCC([C@@H](O)c4ccccc4-c4ccc(Cl)cc4)CC3)cc2)cc1S(=O)(=O)C(F)(F)F [AZD4320] + C=CCn1c(=O)c2cnc(Nc3ccc(N4CCN(C)CC4)cc3)nc2n1-c1cccc(C(C)(C)O)n1 [AZD1775] (first compound max 1 µM, partner max 1 µM) | 0.708 | 0.867 | 0.931 | 0.591 | 0.712 | 0.804 | 0.916 | 1 | 0.726 | 0.872 | 0.716 | 0.195 | 0.833 | 0.404 | 0.318 | 0.112 | 0.528 | 1 | 0.982 | 0.834
CN(CCO)CC[C@H](CSc1ccccc1)Nc1ccc(S(=O)(=O)NC(=O)c2ccc(N3CCC([C@@H](O)c4ccccc4-c4ccc(Cl)cc4)CC3)cc2)cc1S(=O)(=O)C(F)(F)F [AZD4320] + CCN(CCO)CCCOc1ccc2c(Nc3cc(CC(=O)Nc4cccc(F)c4)[nH]n3)ncnc2c1 [AZD2811] (first compound max 1 µM, 7x7, partner max 1 µM) | 0.544 | 0.889 | 0.684 | 0.219 | 0.661 | 0.466 | 0.333 | 1 | 0.344 | 0.861 | 0.368 | 0.335 | 0.257 | 0.125 | 0.289 | 0.162 | 0.0513 | 0.597 | 0.48 | 0.932
CN(CCO)CC[C@H](CSc1ccccc1)Nc1ccc(S(=O)(=O)NC(=O)c2ccc(N3CCC([C@@H](O)c4ccccc4-c4ccc(Cl)cc4)CC3)cc2)cc1S(=O)(=O)C(F)(F)F [AZD4320] + CN(C)CCCOc1ccc(-c2ccc3ncc4c(c3c2)n(C2CCOCC2)c(=O)n4C)cn1 [AZD0156] (first compound max 1 µM, 7x7, partner max 1 µM) | 0.462 | 0.712 | 0.173 | 0.136 | 0.62 | 0.515 | 0.0719 | 0.984 | 0.219 | 0.612 | 0.101 | 0.283 | 0.209 | 0.191 | 0.289 | 0.108 | 0.108 | 0.68 | 0.158 | 0.718
CN(CCO)CC[C@H](CSc1ccccc1)Nc1ccc(S(=O)(=O)NC(=O)c2ccc(N3CCC([C@@H](O)c4ccccc4-c4ccc(Cl)cc4)CC3)cc2)cc1S(=O)(=O)C(F)(F)F [AZD4320] + C[C@@H]1COCCN1C2=NC(=NC(=C2)C3(CC3)[S@](=N)(=O)C)C4=C5C=CNC5=NC=C4 [AZD6738] (first compound max 1 µM, 7x7, partner max 10 µM) | 0.878 | 0.928 | 0.936 | 0.768 | 0.79 | 0.624 | 0.765 | 1 | 0.546 | 0.872 | 0.487 | 0.324 | 0.793 | 0.672 | 0.425 | 0.246 | 0.719 | 0.934 | 0.928 | 0.95
CN(CCO)CC[C@H](CSc1ccccc1)Nc1ccc(S(=O)(=O)NC(=O)c2ccc(N3CCC([C@@H](O)c4ccccc4-c4ccc(Cl)cc4)CC3)cc2)cc1S(=O)(=O)C(F)(F)F [AZD4320] + C[C@@H](Nc1cc(F)cc(F)c1)c1cc(C(=O)N(C)C)cc2c(=O)cc(N3CCOCC3)oc12 [AZD8186] (first compound max 1 µM, 7x7, partner max 3 µM) | 0.694 | 0.917 | 0.651 | 0.354 | 0.817 | 0.547 | 0.39 | 0.988 | 0.507 | 0.765 | 0.273 | 0.439 | 0.312 | 0.48 | 0.381 | 0.33 | 0.249 | 0.613 | 0.573 | 0.905
CN(CCO)CC[C@H](CSc1ccccc1)Nc1ccc(S(=O)(=O)NC(=O)c2ccc(N3CCC([C@@H](O)c4ccccc4-c4ccc(Cl)cc4)CC3)cc2)cc1S(=O)(=O)C(F)(F)F [AZD4320] + Cc1cc2ncnn2cc1Nc1ncc2c(n1)n(C1CCOCC1)c(=O)n2C [AZD7648] (first compound max 1 µM, 7x7, partner max 10 µM) | 0.421 | 0.646 | 0.191 | 0.202 | 0.566 | 0.39 | 0.0876 | 1 | 0.223 | 0.737 | 0.136 | 0.312 | 0.314 | 0.374 | 0.338 | 0.12 | 0.0764 | 0.586 | 0.323 | 0.811
CN(CCO)CC[C@H](CSc1ccccc1)Nc1ccc(S(=O)(=O)NC(=O)c2ccc(N3CCC([C@@H](O)c4ccccc4-c4ccc(Cl)cc4)CC3)cc2)cc1S(=O)(=O)C(F)(F)F [AZD4320] + Cn1cnc2c(F)c(Nc3ccc(Br)cc3Cl)c(C(=O)NOCCO)cc21 [Selumetinib] (first compound max 1 µM, 7x7, partner max 3 µM) | 0.751 | 0.941 | 0.448 | 0.338 | 0.665 | 0.414 | 0.422 | 0.983 | 0.423 | 0.775 | 0.254 | 0.314 | 0.796 | 0.406 | 0.343 | 0.247 | 0.319 | 0.533 | 0.512 | 0.951
COc1nnc2ccc(N3CCC(c4ccc(OCCN5CCN(C)C(=O)[C@H]5C)cc4)CC3)nn12 [AZD5153] + C=CCn1c(=O)c2cnc(Nc3ccc(N4CCN(C)CC4)cc3)nc2n1-c1cccc(C(C)(C)O)n1 [AZD1775] (first compound max 1 µM, partner max 1 µM) | 0.662 | 0.56 | 0.842 | 0.711 | 0.382 | 0.462 | 0.754 | 0.734 | 0.549 | 0.568 | 0.684 | 0.505 | 0.471 | 0.399 | 0.803 | 0.621 | 0.349 | 0.964 | 0.969 | 0.353
